Results reported in patent publication US12209085B2, “RET inhibitors, pharmaceutical compositions and uses thereof” (SUNSHINE LAKE PHARMA CO., LTD., priority 2018, dated 2025).

Key:
Ret wt = Ret wt (Homo sapiens (Human), UniProt P07949); experiment: HTRF kinase inhibition assay, Ret wt; assay type: biochemical; details: HTRF method
Source text: (§1) • 1. […] 1) • 18) Echo (Labcyte, 550) • 3.
(§2) [formula] • Ratiopositive control: average of CEP-32496 readings in all positive control wells • Rationegative control: average of DMSO readings in all negative control wells • Wherein, the chemical name of CEP-32496 is: N-[3-[(6,7-dimethoxy-4-quinazolinyl)oxy]phenyl]-N′-[5-(2,2,2-trifluoro-1,1-dimethylethyl)-3-isoxazolyl]urea. • 4.3 Calculation of the IC50 and Drawing of the inhibition curve of the compound: • The IC50 (half inhibitory concentration) of the compound was obtained using the following non-linear fitting formula: Data analysis was performed using Graphpad 6.0 software. Y=Bottom+(Top−Bottom)/(1+10^((Log IC50−X)*Hill Slope)) • X: compound concentration log value Y: inhibition, % • 5.

Ret V804M = Ret V804M (Homo sapiens (Human), UniProt P07949, V804M); experiment: HTRF kinase inhibition assay, Ret V804M; assay type: biochemical; details: HTRF method
Source text: as §1, §2

Sequence of Ret V804M (P07949 29-1114 V804M): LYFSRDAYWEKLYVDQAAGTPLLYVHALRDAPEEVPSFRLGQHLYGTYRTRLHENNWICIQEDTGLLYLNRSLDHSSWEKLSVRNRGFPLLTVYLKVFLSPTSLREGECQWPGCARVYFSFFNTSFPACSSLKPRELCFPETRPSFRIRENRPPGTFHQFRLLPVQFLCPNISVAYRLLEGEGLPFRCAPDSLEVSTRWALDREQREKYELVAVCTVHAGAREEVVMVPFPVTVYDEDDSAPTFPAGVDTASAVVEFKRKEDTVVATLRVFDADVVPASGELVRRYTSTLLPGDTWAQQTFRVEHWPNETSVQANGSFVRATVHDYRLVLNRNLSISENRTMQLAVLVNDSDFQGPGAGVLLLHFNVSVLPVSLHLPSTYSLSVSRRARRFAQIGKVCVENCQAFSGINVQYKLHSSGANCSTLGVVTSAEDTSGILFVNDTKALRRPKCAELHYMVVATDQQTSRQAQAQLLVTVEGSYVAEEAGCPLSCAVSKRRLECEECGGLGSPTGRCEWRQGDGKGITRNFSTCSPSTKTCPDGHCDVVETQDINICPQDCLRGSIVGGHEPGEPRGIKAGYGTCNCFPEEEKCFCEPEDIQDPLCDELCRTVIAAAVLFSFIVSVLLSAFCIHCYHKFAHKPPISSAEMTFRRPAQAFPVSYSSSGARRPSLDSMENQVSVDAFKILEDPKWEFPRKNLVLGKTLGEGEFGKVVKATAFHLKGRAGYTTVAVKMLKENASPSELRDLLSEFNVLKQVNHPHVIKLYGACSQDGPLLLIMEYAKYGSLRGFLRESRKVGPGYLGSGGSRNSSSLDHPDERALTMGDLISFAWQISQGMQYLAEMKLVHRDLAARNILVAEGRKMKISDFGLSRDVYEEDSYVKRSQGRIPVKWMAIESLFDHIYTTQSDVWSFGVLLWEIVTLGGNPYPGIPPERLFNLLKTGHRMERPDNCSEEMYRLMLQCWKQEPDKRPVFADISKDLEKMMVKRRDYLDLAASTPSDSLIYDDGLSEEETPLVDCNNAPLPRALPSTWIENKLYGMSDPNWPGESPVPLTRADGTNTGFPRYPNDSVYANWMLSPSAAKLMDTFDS
Sequence of Ret wt (P07949 29-1114): as the sequence (P07949 29-1114 V804M) above, with M776V counted along it

SMILES | IC50 (Ret wt) | IC50 (Ret V804M)
C#Cc1ccc(C(=O)NC2(C)CCN(c3ccc(-c4cc(-c5cnn(C)c5)cn5ncc(C#N)c45)cn3)CC2)cc1 [Example 2, N-(1-(5-(3-cyano-6-(1-methyl-1H-pyrazol-4-yl)pyrazolo[1,5-a]pyridin-4-yl)pyridin-2-yl)-4-methyl-piperidin-4-yl)-4-ethynylbenzamide] | 0.35 nM | 
C#CC(=O)N1CCN(c2ccc(-c3cc(-c4cnn(C)c4)cn4ncc(C#N)c34)cn2)CC1 [Example 5] | 0.39 nM | 8.2 nM
C#CC(=O)N1C2CC1CN(c1ccc(-c3cc(-c4cnn(C)c4)cn4ncc(C#N)c34)cn1)C2 [Example 31, 6-(1-methyl-1H-pyrazol-4-yl)-4-(6-(6-propioloyl-3,6-diazabicyclo[3.1.1]heptan-3-yl)pyridin-3-yl)pyrazolo[1,5-a]pyridine-3-carbonitrile] | 1.95 nM | 44.3 nM
C#Cc1cncc(CN2C3CC2CN(c2ccc(-c4cc(-c5cnn(C)c5)cn5ncc(C#N)c45)cn2)C3)c1 [Example 187, 4-(6-(6-((5-ethynylpyridin-3-yl)methyl)-3,6-diazabicyclo[3.1.1]heptan-3-yl)pyridin-3-yl)-6-(1-methyl-1H-pyrazol-4-yl)pyrazolo[1,5-a]pyridine-3-carbonitrile] | 0.28 nM | 
C#CCN1C2CC1CN(c1ccc(-c3cc(-c4cnn(C)c4)cn4ncc(C#N)c34)cn1)C2 [Example 195, 6-(1-methyl-1H-pyrazol-4-yl)-4-(6-(6-(prop-2-yn-1-yl)-3,6-diazabicyclo[3.1.1]heptan-3-yl)pyridin-3-yl)pyrazolo[1,5-a]pyridine-3-carbonitrile] | 0.29 nM | 
C#Cc1cc(CN2C3CC2CN(c2ccc(-c4cc(-c5cnn(C)c5)cn5ncc(C#N)c45)cn2)C3)ccn1 [Example 217, 4-(6-(6-((2-ethynylpyridin-4-yl)methyl)-3,6-diazabicyclo[3.1.1]heptan-3-yl)pyridin-3-yl)-6-(1-methyl-1H-pyrazol-4-yl)pyrazolo[1,5-a]pyridine-3-carbonitrile] | 0.35 nM | 
C#Cc1cccc(CN2C3CC2CN(c2ccc(-c4cc(-c5cnn(C)c5)cn5ncc(C#N)c45)cn2)C3)c1F [Example 218, 4-(6-(6-(3-ethynyl-2-fluorobenzyl)-3,6-diazabicyclo[3.1.1]heptan-3-yl)pyridin-3-yl)-6-(1-methyl-1H-pyrazol-4-yl)pyrazolo[1,5-a]pyridine-3-carbonitrile] | 0.52 nM | 
C#Cc1cccc(C(C)N2C3CC2CN(c2ccc(-c4cc(-c5cnn(C)c5)cn5ncc(C#N)c45)cn2)C3)n1 (stereo not shown) [Example 219, 4-(6-(6-(1-(6-ethynylpyridin-2-yl)ethyl)-3,6-diazabicyclo[3.1.1]heptan-3-yl)pyridin-3-yl)-6-(1-methyl-1H-pyrazol-4-yl)pyrazolo[1,5-a]pyridine-3-carbonitrile] | 2.9 nM | 
C#Cc1cc(CN2C3CC2CN(c2ccc(-c4cc(-c5cnn(C)c5)cn5ncc(C#N)c45)cn2)C3)ccc1F [Example 220, 4-(6-(3-(3-ethynyl-4-fluorobenzyl)-3,6-diazabicyclo[3.1.1]hept-3-yl)pyridin-3-yl)-6-(1-methyl-1H-pyrazol-4-yl)pyrazolo[1,5-a]pyridine-3-carbonitrile] | 0.22 nM | 
C#Cc1cccc(CN2C3CC2CN(c2ccc(-c4cc(-c5cnn(C)c5)cn5ncc(C#N)c45)cn2)C3)n1 [Example 221, 4-(6-(6-((6-ethynylpyridin-2-yl)methyl)-3,6-diazabicyclo[3.1.1]hept-3-yl)pyridin-3-yl)-6-(1-methyl-1H-pyrazol-4-yl)pyrazolo[1,5-a]pyridine-3-carbonitrile] | 0.55 nM | 12.4 nM
C#Cc1cc(F)c(CN2C3CC2CN(c2ccc(-c4cc(-c5cnn(C)c5)cn5ncc(C#N)c45)cn2)C3)c(F)c1 [Example 222, 4-(6-(6-(4-ethynyl-2,6-difluorobenzyl)-3,6-diazabicyclo[3.1.1]heptan-3-yl)pyridin-3-yl)-6-(1-methyl-1H-pyrazol-4-yl)pyrazolo[1,5-a]pyridine-3-carbonitrile] | 0.43 nM | 4.35 nM
C#Cc1cccc(CN2CCN(c3ccc(-c4cc(-c5cnn(C)c5)cn5ncc(C#N)c45)cn3)CC2)c1F [Example 224, 4-(6-(4-(3-ethynyl-2-fluorobenzyl)piperazin-1-yl)pyridin-3-yl)-6-(1-methyl-1H-pyrazol-4-yl)pyrazolo[1,5-a]pyridine-3-carbonitrile] | 0.57 nM | 21 nM
C#Cc1ccc(CN2CCN(c3ccc(-c4cc(-c5cnn(C)c5)cn5ncc(C#N)c45)cn3)CC2)nc1 [Example 225] | 0.39 nM | 2.22 nM
C#Cc1cccc(C(=O)N2CCC3(CCN(c4ccc(-c5cc(-c6cnn(C)c6)cn6ncc(C#N)c56)cn4)CC3)C2)c1 [Example 229, 4-(6-(2-(3-ethynyl)-2,8-diazaspiro[4.5]dec-8-yl)pyridin-3-yl)-6-(1-methyl-1H-pyrazol-4-yl)pyrazolo[1,5-a]pyridine-3-carbonitrile] | 25.1 nM | 
C#Cc1ccc(C(=O)N2C3CC2CN(c2ccc(-c4cc(-c5cnn(C)c5)cn5ncc(C#N)c45)cn2)C3)cc1 [Example 230, 4-(6-(6-(4-ethynyl)-3,6-diazabicyclo[3.1.1]heptan-3-yl)pyridin-3-yl)-6-(1-methyl-1H-pyrazol-4-yl)pyrazolo[1,5-a]pyridine-3-carbonitrile] | 1.05 nM | 
C#Cc1cccc(C(=O)N2C3CC2CN(c2ccc(-c4cc(-c5cnn(C)c5)cn5ncc(C#N)c45)cn2)C3)c1 [Example 231, 4-(6-(6-(3-ethynyl)-3,6-diazabicyclo[3.1.1]heptan-3-yl)pyridin-3-yl)-6-(1-methyl-1H-pyrazol-4-yl)pyrazolo[1,5-a]pyridine-3-carbonitrile] | 3.75 nM | 
C#Cc1ccc(C(=O)N2C3CC2CN(c2ccc(-c4cc(-c5cnn(C)c5)cn5ncc(C#N)c45)cn2)C3)cc1F [Example 232, 4-(6-(6-(4-ethynyl-3-fluorobenzoyl)-3,6-diazabicyclo[3.1.1]heptan-3-yl)pyridin-3-yl)-6-(1-methyl-1H-pyrazol-4-yl)pyrazolo[1,5-a]pyridine-3-carbonitrile] | 0.37 nM | 1.79 nM
C#Cc1cc(C(=O)N2C3CC2CN(c2ccc(-c4cc(-c5cnn(C)c5)cn5ncc(C#N)c45)cn2)C3)ccc1F [Example 233, 4-(6-(6-(3-ethynyl-4-fluorobenzoyl)-3,6-diazabicyclo[3.1.1]heptan-3-yl)pyridin-3-yl)-6-(1-methyl-1H-pyrazol-4-yl)pyrazolo[1,5-a]pyridine-3-carbonitrile] | 0.5 nM | 8.92 nM
C#Cc1cc(F)c(C(=O)N2CCN(c3ccc(-c4cc(-c5cnn(C)c5)cn5ncc(C#N)c45)cn3)CC2)c(F)c1 [Example 234, 4-(6-(4-(4-ethynyl-2,6-difluorobenzoyl)piperazin-1-yl)pyridin-3-yl)-6-(1-methyl-1H-pyrazol-4-yl)pyrazolo[1,5-a]pyridine-3-carbonitrile] | 4 nM | 62.3 nM
C#Cc1cc(F)c(C(=O)N2C3CC2CN(c2ccc(-c4cc(-c5cnn(C)c5)cn5ncc(C#N)c45)cn2)C3)c(F)c1 [Example 235] | 0.4 nM | 10 nM
C#Cc1ccc(C(=O)N2CCN(c3ccc(-c4cc(-c5cnn(C)c5)cn5ncc(C#N)c45)cn3)CC2)cc1F [Example 236, 4-(6-(4-(4-ethynyl-3-fluorobenzoyl)piperazin-1-yl)pyridin-3-yl)-6-(1-methyl-1H-pyrazol-4-yl)pyrazolo[1,5-a]pyridine-3-carbonitrile] | 1.57 nM | 19.7 nM
C#Cc1ccc(C(=O)N2CCN(c3ccc(-c4cc(-c5cnn(C)c5)cn5ncc(C#N)c45)cn3)CC2)nc1 [Example 237, 4-(6-(4-(5-ethynylpicolinoyl)piperazin-1-yl)pyridin-3-yl)-6-(1-methyl-1H-pyrazol-4-yl)pyrazolo[1,5-a]pyridine-3-carbonitrile] | 0.39 nM | 2.06 nM
C#Cc1ccc(C(=O)N2C3CC2CN(c2ccc(-c4cc(-c5cnn(C)c5)cn5ncc(C#N)c45)cn2)C3)nc1 [Example 238, 4-(6-(6-(5-ethynylpicolinoyl)-3,6-diazabicyclo[3.1.1]heptan-3-yl)pyridin-3-yl)-6-(1-methyl-1H-pyrazol-4-yl)pyrazolo[1,5-a]pyridine-3-carbonitrile] | 0.3 nM | 2.75 nM
C#Cc1cc(C(=O)N2CCN(c3ccc(-c4cc(-c5cnn(C)c5)cn5ncc(C#N)c45)cn3)CC2)ccc1F [Example 239, 4-(6-(4-(3-ethynyl-4-fluorobenzoyl)piperazin-1-yl)pyridin-3-yl)-6-(1-methyl-1H-pyrazol-4-yl)pyrazolo[1,5-a]pyridine-3-carbonitrile] | 0.62 nM | 12.3 nM
Cn1cc(-c2cc(-c3ccc(N4CC5CC(C4)N5CC#Cc4ccc(C(F)(F)F)cc4)nc3)c3c(C#N)cnn3c2)cn1 [Example 242, 6-(1-methyl-1H-pyrazol-4-yl)-4-(6-(6-(3-(4-(trifluoromethyl)phenyl)prop-2-yn-1-yl)-3,6-diazabicyclo[3.1.1]heptan-3-yl)pyridin-3-yl)pyrazolo[1,5-a]pyridine-3-carbonitrile] | 1.72 nM | 
Cn1cc(-c2cc(-c3ccc(N4CC5(CCN(C(=O)C#Cc6ccccc6)CC5)C4)nc3)c3c(C#N)cnn3c2)cn1 [Example 269, 6-(1-methyl-1H-pyrazol-4-yl)-4-(6-(7-(3-phenylpropioloyl)-2,7-diazaspiro[3.5]nonan-2-yl)pyridin-3-yl)pyrazolo[1,5-a]pyridine-3-carbonitrile] | 27 nM | 
